Data from patent publication US11000491B2, “Amino-aryl-benzamide compounds and methods of use thereof” (HEPANOVA, INC., priority 2017, dated 2021).
Like-named read-outs stand apart in the source and are kept apart here.

How the values were obtained:
Format in all cases: cell-based
[1] = test system: Huh7 cells; test: LD content in Huh7 cells pre-treated with insulin, Oil-Red-O staining, absorbance OD 540 nm; conditions: procedure of Example 3, read-out: LD content inhibition (EC50)
Outline: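 Huh7 cells, mock-treated or pre-treated with 1 mM insulin, were then exposed to compound at the indicated amounts. Lipid droplets stained with Oil Red O and quantified by absorbance at OD 540 nm.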

[2] = test system: SREBP-1; test: SREBP-1 expression in cultured primary human hepatocytes; conditions: procedure of Example 6, read-out: SREBP-1 mRNA inhibition (EC50)
Outline: (§1)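 Primary human hepatocytes in culture exposed to a range of HPN-01 derivative concentrations; SREBP-1 and SREBP-2 mRNA expression then measured to assess inhibition.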

[3] = test system: SREBP-2; test: SREBP-2 expression in cultured primary human hepatocytes; conditions: procedure of Example 6, read-out: SREBP-2 mRNA inhibition (EC50)
Outline: as §1

[4] = Homo sapiens, Huh-7, Huh7 cells

Row | EC50 [1, 4] [nM] | EC50 ([1]; Huh7 cells) [nM] | Structure (SMILES) | EC50 ([2]; Homo sapiens, Hepatocyte) [nM] | EC50 ([3]; Homo sapiens, Hepatocyte) [nM] | EC50 [2] [nM] | EC50 [3] [nM]
1 | 2510 | – | NC(=O)Nc1ccc(-c2cc(-c3ccc(Cl)cc3)cc(C(N)=O)c2NC(=O)CCO)cc1 [HPN-01520, 4-chloro-4′-(3-hydroxypropanamido)-4″-ureido-[1,1′:3′,1″-terphenyl]-5′-carboxamide] | 3010 | 4450 | – | –
2 | 1450 | – | NC(=O)c1cc(-c2ccc(Br)cc2)cc(-c2ccc(S(N)(=O)=O)cc2)c1NC(=O)C1CC1 [HPN-01525, 4-bromo-4′-(cyclopropanecarboxamido)-4″-sulfamoyl-[1,1′:3′,1″-terphenyl]-5′-carboxamide] | 5610 | 10000 | – | –
3 | 1150 | – | NCCC(=O)Oc1c(C(N)=O)cc(-c2ccc(Br)cc2)cc1-c1ccc(NC(N)=O)cc1 [HPN-01526, 4-bromo-5′-carbamoyl-4″-ureido-[1,1′:3′,1″-terphenyl]-4′-yl 3-aminopropanoate] | 1630 | 3830 | – | –
4 | 2600 | – | NCC(=O)Nc1c(C(N)=O)cc(-c2ccc(Br)cc2)cc1-c1ccc(S(N)(=O)=O)cc1 [HPN-01527, 4′-(2-aminoacetamido)-4-bromo-4″-sulfamoyl-[1,1′:3′,1″-terphenyl]-5′-carboxamide] | 5250 | 5690 | – | –
5 | 1670 | – | NC(=O)c1cc(-c2ccc(Cl)cc2)cc(-c2ccc(S(N)(=O)=O)cc2)c1NC(=O)c1cccnc1 [HPN-01529, N-(5′-carbamoyl-4-chloro-4″-sulfamoyl-[1,1′:3′,1″-terphenyl]-4′-yl)nicotinamide] | 3090 | 18800 | – | –
6 | – | 460 | NCCC(=O)Nc1c(C(N)=O)cc(-c2ccc(Cl)cc2)cc1-c1ccc(S(N)(=O)=O)cc1 [HPN-01530, 4′-(3-aminopropanamido)-4-chloro-4″-sulfamoyl-[1,1′:3′,1″-terphenyl]-5′-carboxamide] | – | – | 3940 | 9400
7 | 6480 | – | NC(=O)c1cc(-c2ccc(Cl)cc2)cc(-c2ccc(S(N)(=O)=O)cc2)c1NCCO [HPN-01531, 4-chloro-4′-((2-hydroxyethyl)amino)-4″-sulfamoyl-[1,1′:3′,1″-terphenyl]-5′-carboxamide] | 3150 | 5710 | – | –
8 | 1150 | – | NC(=O)c1cc(-c2ccc(Cl)cc2)cc(-c2ccc(S(N)(=O)=O)cc2)c1NCc1cccc(Cl)c1 [HPN-01532, 4-chloro-4′-((3-chlorobenzyl)amino)-4″-sulfamoyl-[1,1′:3′,1″-terphenyl]-5′-carboxamide] | 2690 | 8600 | – | –
9 | 480 | – | CCCCNc1c(C(N)=O)cc(-c2ccc(Cl)cc2)cc1-c1ccc(S(N)(=O)=O)cc1 [HPN-01533, 4′-(butylamino)-4-chloro-4″-sulfamoyl-[1,1′:3′,1″-terphenyl]-5′-carboxamide] | 2830 | 11700 | – | –
10 | 1110 | – | NC(=O)c1cc(-c2ccc(Cl)cc2)cc(-c2ccc(S(N)(=O)=O)cc2)c1NCCc1ccccc1 [HPN-01534, 4-chloro-4′-(phenethylamino)-4″-sulfamoyl-[1,1′:3′,1″-terphenyl]-5′-carboxamide] | 2920 | 6790 | – | –
11 | 2320 | – | CNC(=O)c1cc(-c2ccc(Br)cc2)cc(-c2ccc(S(N)(=O)=O)cc2)c1N [HPN-01602, 4′-amino-4-bromo-N-methyl-4″-sulfamoyl-[1,1′:3′,1″-terphenyl]-5′-carboxamide] | 3320 | 4730 | – | –
12 | 2390 | – | CCCNC(=O)c1cc(-c2ccc(Cl)cc2)cc(-c2ccc(S(N)(=O)=O)cc2)c1N [HPN-01603, 4′-amino-4-chloro-N-propyl-4″-sulfamoyl-[1,1′:3′,1″-terphenyl]-5′-carboxamide] | 7220 | 9400 | – | –
13 | 1140 | – | CCCNC(=O)c1cc(-c2ccc(Br)cc2)cc(-c2ccc(S(N)(=O)=O)cc2)c1N [HPN-01604, 4′-amino-4-bromo-N-propyl-4″-sulfamoyl-[1, 1′:3′,1″-terphenyl]-5′-carboxamide] | 1950 | 5710 | – | –
14 | 690 | – | Nc1c(C(=O)NC2CC2)cc(-c2ccc(Cl)cc2)cc1-c1ccc(S(N)(=O)=O)cc1 [HPN-01605, 4′-amino-4-chloro-N-cyclopropyl-4″-sulfamoyl-[1,1′:3′,1″-terphenyl]-5′-carboxamide] | 1780 | 2350 | – | –
15 | 140 | – | Nc1c(C(=O)NC2CC2)cc(-c2ccc(Br)cc2)cc1-c1ccc(S(N)(=O)=O)cc1 [HPN-01606, 4′-amino-4-bromo-N-cyclopropyl-4″-sulfamoyl-[1,1′:3′,1″-terphenyl]-5′-carboxamide] | 1130 | 2750 | – | –
16 | 3050 | – | Nc1c(C(=O)NCCO)cc(-c2ccc(Cl)cc2)cc1-c1ccc(S(N)(=O)=O)cc1 [HPN-01607, 4′-amino-4-chloro-N-(2-hydroxyethyl)-4″-sulfamoyl-[1,1′:3′,1″-terphenyl]-5′-carboxamide] | 6730 | 12500 | – | –
17 | 1200 | – | Nc1c(C(=O)NCCO)cc(-c2ccc(Br)cc2)cc1-c1ccc(S(N)(=O)=O)cc1 [HPN-01608, 4′-amino-4-bromo-N-(2-hydroxyethyl)-4″-sulfamoyl-[1,1′:3′,1″-terphenyl]-5′-carboxamide] | 2390 | 4310 | – | –
18 | 1160 | – | NS(=O)(=O)c1ccc(-c2cc(-c3ccc(Br)cc3)cc3c(=O)[nH]c(=O)[nH]c23)cc1 [HPN-01610, 4-(6-(4-bromophenyl)-2,4-dioxo-1,2,3,4-tetrahydroquinazolin-8-yl)benzene sulfonamide] | 2000 | 3440 | – | –
19 | 790 | – | Nc1c(C(=O)Nc2ccccc2)cc(-c2ccc(Cl)cc2)cc1-c1ccc(S(N)(=O)=O)cc1 [HPN-01611, 4′-amino-4-chloro-N-phenyl-4″-sulfamoyl-[1,1′:3′,1″-terphenyl]-5′-carboxamide] | 1370 | 2240 | – | –
20 | 640 | – | Nc1c(C(=O)Nc2ccccc2)cc(-c2ccc(Br)cc2)cc1-c1ccc(S(N)(=O)=O)cc1 [HPN-01612, 4′-amino-4-bromo-N-phenyl-4″-sulfamoyl-[1,1′:3′,1″-terphenyl]-5′-carboxamide] | 3110 | 5480 | – | –
21 | 1370 | – | Nc1c(C(=O)Nc2cccc(F)c2)cc(-c2ccc(Cl)cc2)cc1-c1ccc(S(N)(=O)=O)cc1 [HPN-01613, 4′-amino-4-chloro-N-(3-fluorophenyl)-4″-sulfamoyl-[1,1′:3′,1″-terphenyl]-5′-carboxamide] | 1550 | 2200 | – | –
22 | 820 | – | Nc1c(C(=O)Nc2cccc(F)c2)cc(-c2ccc(Br)cc2)cc1-c1ccc(S(N)(=O)=O)cc1 [HPN-01614, 4′-amino-4-bromo-N-(3-fluorophenyl)-4″-sulfamoyl-[1,1′:3′,1″-terphenyl]-5′-carboxamide] | 5650 | 8600 | – | –
23 | 1150 | – | Nc1c(C(=O)Nc2ccc(F)c(F)c2)cc(-c2ccc(Cl)cc2)cc1-c1ccc(S(N)(=O)=O)cc1 [HPN-01615, 4′-amino-4-chloro-N-(3,4-difluorophenyl)-4″-sulfamoyl-[1,1′:3′,1″-terphenyl]-5′-carboxamide] | 6690 | 11700 | – | –
24 | 1070 | – | Nc1c(C(=O)Nc2ccc(F)c(F)c2)cc(-c2ccc(Br)cc2)cc1-c1ccc(S(N)(=O)=O)cc1 [HPN-01616, 4′-amino-4-bromo-N-(3,4-difluorophenyl)-4″-sulfamoyl-[1,1′:3′,1″-terphenyl]-5′-carboxamide] | 3570 | 6790 | – | –
